The test system of one series is Female CBA/Ca mice. As to the kind of experiment: murine local lymph node assay (LLNA). Type of series: in vivo. As to the method: Female CBA/Ca mice, 7 to 9 weeks of age, were purchased from NOVA SCB Charles River, Germany. The mice were housed in HEPA-filtered air flow cages and kept on standard laboratory diet and water ad lib. The regional ethics committee, Jordbruksverket, approved the protocol and the procedure was performed in accordance with the guidelines.
A previously published protocol[24] of the LLNA[34] was used to assess the sensitization potential of the isosorbide bis-epoxides 1–3. The purity of the assessed isosorbide bis-epoxides was >99% (GC/MS or LC/MS) before testing of sensitization potential. The isosorbide bis-epoxides were tested in five different concentrations; 1: 3.9 mM (0.10% w/v), 39 mM (1.0% w/v), 190 mM (5.0% w/v), 390 mM (10% w/v), and 770 mM (20% w/v); 2: 21 mM (1.0% w/v), 54 mM (2.5% w/v), 110 mM (5.0% w/v), 210 mM (10% w/v), and 540 mM (25% w/v); and 3: 2.3 mM (0.10% w/v), 23 mM (1.0% w/v), 110 mM (5.0% w/v), 230 mM (10% w/v), and 460 mM (20% w/v). A detailed description is given in Supporting Information.
The three isosorbide bis-epoxides were evaluated for sensitization potential in vivo with the murine LLNA (Figure 2). The stimulation index (SI) is defined as the ratio between the dpm/lymph node for the test group and the control group. Test materials that at one or more concentrations cause an SI greater than 3 are considered positive in the LLNA. The estimated concentration required to induce an SI of 3 (EC3) is used to determine the sensitizing potency of the test compound. […] Isosorbide bis-epoxide 1 gave an EC3 value of 0.17 M (4.4%), 3 gave an EC3 value of 0.36 M (16%), and no EC3 value was obtained for 2 (for full results, see the Supporting Information, Table S1).
A previously published protocol1 of the LLNA2 was used to assess the sensitization potential of the isosorbide bis-epoxides 1-3. The purity of the assessed isosorbide bis-epoxides was >98% according to LC/MS analysis. The isosorbide bis-epoxides were tested in five different concentrations; 1: 3.87 mM […]
456 mM (20% w/v). Briefly, mice in groups of three received 25 µL of test compound dissolved in the vehicle acetone/olive oil (4:1 v/v), on the dorsum of the ears for three consecutive days (day 0, 1, and 2). A sixth group of four mice was treated with vehicle only (control group). On day 5, all mice were injected intravenously via the tail vein with 250 µL of phosphate buffered saline (PBS) (pH 7.4, 137 mM NaCl, 2.7 mM KCl, and 10 mM phosphate buffer) containing 20 µCi [methyl-3H]thymidine. Five hours later the mice were sacrificed, the draining lymph nodes were excised and pooled for each group, followed by preparation of single-cell suspensions of lymph nodes in PBS by using cell strainers (Falcon; BD Labware, Franklin Lakes, NJ, USA; pore size, 70 µm). Cell suspensions were washed twice with PBS, precipitated with trichloroacetic acid (TCA) (5%), and stored at 4 °C overnight. The samples were then centrifuged, resuspended in TCA (5%, 1 mL), and transferred to scintillation cocktail (10 mL) (EcoLume INC Radiochemicals, Solon, OH, USA). The incorporation of [methyl-3H]thymidine into DNA was measured by b-scintillation counting with a Beckman LS 6000TA instrument. Results are expressed as the mean dpm/lymph node for each experimental group and as stimulation index (SI). The SI is defined as the ratio between dpm/lymph node for the test group and the control group. Test materials that at one or more concentrations cause an SI greater than 3 are considered positive in the LLNA. EC3 values (the estimated concentration required to induce an SI of 3) were calculated by linear interpolation.
Results from the Local Lymph Node Assay
Table S1: Full results from the LLNA of bis-epoxides 1-3a
Test Test [3H]thymidine SI EC value

In the next series the test system is AcPHCKRM. The experiment in a line: peptide depletion with AcPHCKRM. The conditions noted are these: peptide 1 mM, test compound 10 mM, DMSO/phosphate buffer pH 7.4 (1:1), room temperature. As for the experimental part:
Liquid chromatography-mass spectroscopy (LC-MS) analyses of peptide depletion experiments were performed using electrospray ionization (ESI) on a Hewlett-Packard 1100 HPLC/MS (Agilent Technologies, Waldbronn, Germany). The system included a vacuum degasser, a binary pump, an autoinjector, a column thermostat, a diode array detector, and a single quadrupole mass spectrometer. The high-performance liquid chromatography (HPLC) system was equipped with a HyPURITY C18 column (150 × 3 mm i.d., particle size 3 μm, Thermo Hypersil-Keystone, Thermo Electron Corp., Bellafonte, PA, USA). The mobile phase consisted of 0.005% pentafluoropropanoic acid, 0.1% acetic acid, and 5% acetonitrile in water (solvent A) and 0.005% pentafluoropropanoic acid, 0.1% acetic acid, and 50% water in acetonitrile (solvent B). […] The gradient conditions used were as follows: 0-8% B (0-3 min), 8-10% B (3-15 min), 10-100% B (15-18 min), 100% B (18-30 min), 100-0% B (30-30.1 min), 0% B (30.1-40 min). The ESI interface was used in positive ionization mode with the following spray chamber settings: nebulizer pressure, 35 psi; capillary voltage, 3000 V; drying gas temperature, 350 °C; and drying gas flow rate, 12 L/min. The fragmentor voltage was set to 120 V. The mass spectrometer was used in scan mode detecting molecular ions with m/z values ranging from 50 to 1800. All solvents were degassed with argon prior to use.

The nature of series [1]: thermogravimetric analysis (TGA) of polymers formed with TETA. In kind it is physicochemical. The conditions noted are these: polymer cured with TETA, TGA under nitrogen. As to the method:
Detailed information on the polymerization procedure and the thermogravimetric analysis (TGA) is given in the Supporting Information.
Pilot experiments using TGA were conducted to investigate the properties of the polymers formed from isosorbide bis-epoxides 1–3 and the commonly used curing agent TETA (Table 2 and Figure 6). The onset of degradation is described by the initial decomposition temperature (IDT) and is an indication of the thermal stability of the cured epoxy resins. The maximum weight loss rate (Rmax) and the temperature (Tmax) at Rmax were taken from the peak values of the thermograms. The activation energies (Ea) for the decomposition of the polymers were calculated from the thermograms based on the Horowitz–Metzger equation.[43],[44]

Where [2] appears, read: estimated concentration required to induce an SI of 3, linear interpolation.

In the case of `O=C(OC1COC2C(OC(=O)c3ccc(CC4CO4)cc3)COC12)c1ccc(CC2CO2)cc1` [Compound 2, (3R,3aR,6S,6aR)-3,6-O-Bis[4-(3,4-epoxypropyl)benzoyl]-1,4:3,6-dianhydro-D-glucitol], the LLNA outcome in the series with Female CBA/Ca mice (in concentrations up to 25% w/v (0.54 M)) is given as “nonsensitizing”. In the series on Female CBA/Ca mice (test concentration 1.0% w/v), the SI is 1.06 and the “[3H]thymidine incorporation (dpm/lymph node)” value turned out to be 455 dpm/lymph node. For the same molecule, in the series on Female CBA/Ca mice (test concentration 2.5% w/v), the SI is listed as 1.43 and the “[3H]thymidine incorporation (dpm/lymph node)” value is listed as 614 dpm/lymph node. Further, in the series with Female CBA/Ca mice (test concentration 5.0% w/v), the SI came out at 1.10 and the “[3H]thymidine incorporation (dpm/lymph node)” value is recorded as 473 dpm/lymph node. Further, in the series with Female CBA/Ca mice (test concentration 10% w/v), the SI came out at 1.07 and the “[3H]thymidine incorporation (dpm/lymph node)” value was determined as 459 dpm/lymph node. For the same molecule, in the series with Female CBA/Ca mice (test concentration 25% w/v), the SI is 2.27 and the “[3H]thymidine incorporation (dpm/lymph node)” value is reported as 972 dpm/lymph node. Also, the “reactivity with the model peptide AcPHCKRM” value with AcPHCKRM is reported as “least reactive”. In series [1], the “Ea (activation energy for the decomposition of the cured epoxy resins)” value came out at 15.8 kcal/mol, the “IDT (initial decomposition temperature)” value was found to be 361 °C, the “Rmax (maximum weight loss rate)” value is “–0.373 %/°C” and the “Tmax (temperature at the maximum rate of weight loss)” value amounted to 411 °C.
As to `c1cc(CC2CO2)ccc1CO[C@H]1CO[C@H]2[C@@H]1OC[C@H]2OCc1ccc(CC2CO2)cc1` (stereo partly drawn) [Compound 3, (3R,3aR,6S,6aR)-3,6-O-Bis[4-(3,4-epoxypropyl)benzyl]-1,4:3,6-dianhydro-D-glucitol], the “EC3 value (%)” value with Female CBA/Ca mice (as printed in main text) is recorded as 16%. In the series on Female CBA/Ca mice (classified by EC3), the sensitizing potency classification result is listed as “moderate (EC3 > 2%, moderate)”. In the series with Female CBA/Ca mice (setting [2]), the “EC3 value” is 0.36 M and the “EC3 value (% w/v)” value was 15.8 % w/v. Further, in the series on Female CBA/Ca mice (test concentration 0.10% w/v), the SI came to 1.06 and the “[3H]thymidine incorporation (dpm/lymph node)” value came out at 479 dpm/lymph node. Moreover, in the series with Female CBA/Ca mice (test concentration 1.0% w/v), the SI is listed as 1.56 and the “[3H]thymidine incorporation (dpm/lymph node)” value is reported as 706 dpm/lymph node. For the same molecule, in the series on Female CBA/Ca mice (test concentration 5.0% w/v), the SI worked out at 2.55 and the “[3H]thymidine incorporation (dpm/lymph node)” value is 1158 dpm/lymph node. Also, in the series with Female CBA/Ca mice (test concentration 10% w/v), the SI is listed as 2.85 and the “[3H]thymidine incorporation (dpm/lymph node)” value was 1292 dpm/lymph node. Also, in the series on Female CBA/Ca mice (test concentration 20% w/v), the SI was 3.11 and the “[3H]thymidine incorporation (dpm/lymph node)” value is given as 1412 dpm/lymph node. For the same molecule, in the series with AcPHCKRM, the “reactivity with the model peptide AcPHCKRM” value is “slightly less reactive”. For the same molecule, in series [1], the “Ea (activation energy for the decomposition of the cured epoxy resins)” value was 18.2 kcal/mol, the “IDT (initial decomposition temperature)” value turned out to be 329 °C, the “Rmax (maximum weight loss rate)” value was “–0.722 %/°C” and the “Tmax (temperature at the maximum rate of weight loss)” value stood at 382 °C.
